According to US10006005B2, “Culture medium and method for inducing differentiation of pluripotent stem cells to hepatoblasts” (National University Corporation Chiba University, priority 2014, dated 2018):

How the values were obtained:
[1] = system: human iPS cell line (201B7); assay: Optical microscopic observation of survival of cultured human iPS cells; assay type: cell-based; details: reagent added to culture in HSM, observed after 3 days; M50054 at 100 μg/mL
Method: (§1) A human iPS cell line (201B7; Riken Cell Bank) was seeded to a 25-cm^2 flask (manufactured by Asahi Glass Co., Ltd.), a 6-well plate (manufactured by Asahi Glass Co., Ltd.), or a 96-well flat-bottomed plate (manufactured by Asahi Glass Co., Ltd.), which is coated with Matrigel, and was cultured in a 5% CO2 incubator at 37° C. The coating with Matrigel was performed by: adding a solution prepared by adding 8.7 ml of Dalbecco's Modified Eagle's Medium/Nutrient F-12 Ham (manufactured by Sigma) to 0.3 ml of Matrigel™ (manufactured by Becton Dickinson) to a 25-cm^2 flask, a 6-well plate, and a 96-well flat-bottomed plate, in amounts of 1 ml, 0.5 ml, and 20 μl, respectively; and leaving the whole to stand still at room temperature for 30 minutes. ReproFF (manufactured by ReproCELL Incorporated) was used as a cell culture medium. ReproFF is a culture medium for culturing primate ES cells or human IFS cells while maintaining the pluripotency. The cells were passaged by culture using a 25-cm^2 flask. The cells were dispersed as described below. After the aspiration of the medium, the 25-cm^2 flask was rinsed with 1 ml of physiological saline per flask. After the aspiration of the saline, 0.5 ml of Accutase (manufactured by Innovative Cell Technologies) was added and the cells were incubated in an incubator for 5 minutes. 0.5 ml of ReproFF was added, and the cells were harvested. Then, the cells were centrifuged at 1,000 rpm for 3 minutes. The supernatant was removed by aspiration, and then the precipitated cells were used by being suspended in ReproFF.
An optical microscope CKX41N-31PHP (manufactured by Olympus Corporation) was used for an optical microscopic observation of cells. […]
Further, RNA was extracted and the expression levels of various genes were analyzed by real-time quantitative PCR. […]
The resultant cells were observed under an optical microscope. In addition, the expression level of AFP in the resultant cells was measured.

AFP gene = AFP gene expression in cultured iPS cells by real-time quantitative PCR; assay type: cell-based, human; details: for expression level of AFP gene: 2 days in HSM plus compound alone (10 μM)
Method: as §1
A medium used in a search study on various growth factors (hereinafter abbreviated as iPSm[-]) was prepared by adding 20% Knockout™ Serum Replacement (hereinafter abbreviated as KSR; manufactured by Life Technologies), Minimum Essential Amino Acids (manufactured by Life Technologies), 2 mM L-glutamine (manufactured by Life Technologies), and 1 mM 2-mercaptoethanol (manufactured by Sigma-Aldrich) to Dulbecco's […]-F12 (manufactured by Sigma-Aldrich) (Takahashi, K. et al., “Induction of Pluripotent Stem Cells from Adult Human Fibroblasts by Defined Factors,” Cell, 2007, Vol. 131, No. 5, p. 861-872).
Cell differentiation was confirmed by measuring an expression gene by real-time quantitative PCR. RNA was extracted by using Isogen (manufactured by NIPPON GENE) according to the manufacturer's instructions. 5 μg of total RNA was synthesized by using Superscript3 first-strand synthesis system for PCR (manufactured by Life Technologies) and an oligo dT primer according to the manufacturer's instructions. Real-time quantitative PCR was performed using 4 ng of synthesized cDNA per sample. PCR was performed as follows: PCR were 40 cycles of denaturation for 5 seconds and annealing-extension for 5 seconds. SYBR Green Master Mix (manufactured by Life Technologies) was used for the reaction. Mini Opticon system (manufactured by Bio-Rad) was used for detection in real-time PCR. The expression level of each gene was calculated as an average value of data obtained from three wells. Ribosomal protein L (RPL)-19 was used as an internal control and the expression level of each gene was represented as a relative expression level to the expression level of RPL-19.
First, iPS cells were cultured in HSM to confirm differentiation of the iPS cells to hepatocytes. Specifically, iPS cells were cultured in HSM for 2 days, and then gene expression in the cells was measured by real-time quantitative PCR. Thus, the induction of differentiation of iPS cells to hepatocytes was detected. ReproFF was used as a control medium and similar investigations were performed.
In this Example, the addition of NEAA and sodium pyruvate (1 mM) to HSM was investigated for the purpose of enhancing the survival of iPS cells. Specifically, iPS cells were cultured for 2 days in a medium prepared by adding NEAA and sodium pyruvate (1 mM) to HSM, and the expression of AFP gene was measured by real-time quantitative PCR. […]

[2] = system: human iPS cell line (201B7); assay: Cell proliferation assay (MTS assay) of surviving iPS cells; assay type: cell-based
Method: A human iPS cell line (201B7, Riken Cell Bank) was seeded to a 96-well flat-bottomed plate coated with Matrigel at 1,000 cells/50 μl per well. After 48 hours of culture, 3-(4,5-dimethylthiazol-2-yl)-5-(3-carboxymethoxyphenyl)-2-(4-sulfophenyl)-2H-tetrazolium inner salt (MTS; manufactured by Promega) was added at 5 μl per well, and the cells were incubated in an incubator for 2 hours. After that, cell proliferation was verified by measuring an absorbance at a wavelength of 490 nm with iMark™ Microplate Absorbance Reader (manufactured by Bio-Rad).
In view of the foregoing, MTS assay was performed 48 hours after the addition of M50054.

[3] = 1 week in iPSm(-) supplemented with growth factor
[4] = 48 hours in HSM supplemented with the factor alone

Molecule: O=C(O)c1ccc(Cl)c(S(=O)(=O)Nc2cccc([N+](=O)[O-])c2)c1 [CTP inhibitor, 4-chloro-3-[[(3-nitrophenyl)amino]sulfonyl]-benzoic acid]
- survival of iPS cells observed with an optical microscope [1]: died

Molecule: O=C1OC(C=Cc2ccccc2)=N/C1=C\c1cccnc1 [DAPK inhibitor, (4Z)-4-(3-pyridylmethylene)-2-styryl-oxazol-5-one]
- survival of iPS cells observed with an optical microscope [1]: died

Molecule: CC(=O)Nc1ccc(Cc2ccc(NC(C)=O)cc2)cc1 [FH1, N,N′-(methylenebis(4,1-phenylene))diacetamide]
- expression level of AFP gene (AFP gene): did not exhibit such effect

Molecule: Cc1ccc(Cl)cc1N(CC(=O)Nc1c(F)cccc1F)S(C)(=O)=O [FPH1, 2-(N-(5-chloro-2-methylphenyl)methylsulfonamido)-N-(2,6-difluorophenyl)acetamide]
- expression level of AFP gene (AFP gene): increased

Molecule: O=C1CCCC(=O)C1CC1C(=O)CCCC1=O [M50054, 2,2′-methylenebis(1,3-cyclohexanedione)]
- survival of iPS cells observed with an optical microscope [1]: some of the iPS cells survived
- MTS assay value, one-way analysis of variance ([2]; 100 μg/mL compared to 0 μg/mL and 1,000 μg/mL, P<0.05): significantly high value
- cell toxicity (MTS assay) ([2]; 1,000 μg/mL): showed cell toxicity
- absorbance in MTS assay (surviving cells) ([2]; 48 hours after addition of M50054, 100 g/mL as printed): maximum absorbance
- expression of AFP gene (AFP gene; 48 hours in HSM plus M50054 at […] as printed): upregulated

Molecule: HGF: hepatocyte growth factor, commercially available from Wako Pure Chemical Industries
- expression of AFP gene (AFP gene; [3]): upregulating effect

B1: oncostatin M: cytokine of the IL-6 family (protein, UniProt P13725 26-221, looked up)
Oncostatin-M: AAIGSCSKEYRVLLGQLQKQTDLMQDTSRLLDPYIRIQGLDVPKLREHCRERPGAFPSEETLRGLGRRGFLQTLNATLGCVLHRLADLEQRLPKAQDLERSGLNIEDLEKLQMARPNILGLRNNIYCMAQLLDNSDTAEPTKAGRGASQPPTPTPASDAFQRKLEGCRFLHGYHRFMHSVGRVFSKWGESPNRSRR
- expression of AFP gene (AFP gene; [3]): upregulating effect
- expression of AFP gene, compared to HGF (AFP gene; [4]): high upregulating effect
- expression of AFP gene, compared to fetal liver (AFP gene; [4]): more upregulated than the expression of the gene in fetal liver
